Results taken from ChEMBL document CHEMBL1681651, “A broad spectrum anticancer nucleoside with selective toxicity against human colon cells in vitro” (2011).

Experiments:
Type in all cases: functional
786-0 [1] = assay: Growth inhibition of human 786-0 cells assessed as cell growth at 100 uM after 48 hrs by SRB assay; conditions: 786-0, 48 h, read-out: Activity
NCI-H226 [2] = assay: Growth inhibition of human NCI-H226 cells assessed as cell growth at 1 uM after 48 hrs by SRB assay; conditions: NCI-H226, 48 h, read-out: Activity
U-251 = assay: Growth inhibition of human U251 cells assessed as cell growth at 1 mM after 48 hrs by SRB assay; conditions: U-251, 48 h, read-out: Activity
COLO 205 [3] = assay: Growth inhibition of human COLO205 cells assessed as cell growth at 0.1 uM after 48 hrs by SRB assay; conditions: COLO 205, 48 h, read-out: Activity
SK-OV-3 [4] = assay: Growth inhibition of human SKOV3 cells assessed as cell growth at 1 mM after 48 hrs by SRB assay; conditions: SK-OV-3, 48 h, read-out: Activity
NCI-H522 = assay: Growth inhibition of human NCI-H522 cells assessed as cell growth at 0.1 uM after 48 hrs by SRB assay; conditions: NCI-H522, 48 h, read-out: Activity
K562 = assay: Growth inhibition of human K562 cells assessed as cell growth at 10 uM after 48 hrs by SRB assay; conditions: K562, 48 h, read-out: Activity
SF-268 = assay: Growth inhibition of human SF268 cells after 48 hrs by […] growth inhibition assay; conditions: SF-268, 48 h
NCI-H322M = assay: Growth inhibition of human NCI-H322M cells assessed as cell growth at 100 uM after 48 hrs by SRB assay; conditions: read-out: Activity
MDA-MB-231 = assay: Growth inhibition of human MDA-MB-231 cells assessed as cell growth at 1 mM after 48 hrs by SRB assay; conditions: MDA-MB-231, 48 h, read-out: Activity
SF-295 = assay: Growth inhibition of human SF295 cells after 48 hrs by […] growth inhibition assay; conditions: SF-295, 48 h
UO-31 = assay: Growth inhibition of human UO31 cells after 48 hrs by […] growth inhibition assay; conditions: UO-31, 48 h
MDA-MB-435 [5] = assay: Growth inhibition of human MDA-MB-435 cells assessed as cell growth at 10 uM after 48 hrs by SRB assay; conditions: MDA-MB-435, 48 h, read-out: Activity
NCI-H226 [6] = assay: Growth inhibition of human NCI-H226 cells assessed as cell growth at 1 mM after 48 hrs by SRB assay; conditions: NCI-H226, 48 h, read-out: Activity
M14 = assay: Growth inhibition of human M14 cells assessed as cell growth at 10 uM after 48 hrs by SRB assay; conditions: M14, 48 h, read-out: Activity
BT-549 = assay: Growth inhibition of human BT549 cells assessed as cell growth at 10 uM after 48 hrs by SRB assay; conditions: BT-549, 48 h, read-out: Activity
EKVX = assay: Growth inhibition of human EKVX cells assessed as cell growth at 1 uM after 48 hrs by SRB assay; conditions: read-out: Activity
[7] = Growth inhibition of human […] cells assessed as cell growth at 100 uM after 48 hrs by SRB assay; conditions: read-out: Activity
OVCAR-3 = assay: Growth inhibition of human OVCAR3 cells assessed as cell growth at 100 uM after 48 hrs by SRB assay; conditions: OVCAR-3, 48 h, read-out: Activity
MDA-MB-435 [8] = assay: Growth inhibition of human MDA-MB-435 cells assessed as cell growth at 1 uM after 48 hrs by SRB assay; conditions: MDA-MB-435, 48 h, read-out: Activity
COLO 205 [9] = assay: Growth inhibition of human COLO205 cells assessed as cell growth at 1 uM after 48 hrs by SRB assay; conditions: COLO 205, 48 h, read-out: Activity
SK-MEL-2 = assay: Growth inhibition of human SK-MEL-2 cells assessed as cell growth at 1 uM after 48 hrs by SRB assay; conditions: SK-MEL-2, 48 h, read-out: Activity
786-0 [10] = assay: Growth inhibition of human 786-0 cells assessed as cell growth at 1 mM after 48 hrs by SRB assay; conditions: 786-0, 48 h, read-out: Activity
SR = assay: Growth inhibition of human SR cells assessed as cell growth at 10 uM after 48 hrs by SRB assay; conditions: read-out: Activity
SNB-19 = assay: Growth inhibition of human SNB19 cells assessed as cell growth at 1 mM after 48 hrs by SRB assay; conditions: SNB-19, 48 h, read-out: Activity
OVCAR-5 [11] = assay: Growth inhibition of human OVCAR5 cells assessed as cell growth at 1 mM after 48 hrs by SRB assay; conditions: OVCAR-5, 48 h, read-out: Activity
HOP-62 = assay: Growth inhibition of human HOP62 cells assessed as cell growth at 0.1 uM after 48 hrs by SRB assay; conditions: HOP-62, 48 h, read-out: Activity
SK-MEL-5 = assay: Growth inhibition of human SK-MEL-5 cells after 48 hrs by […] growth inhibition assay; conditions: SK-MEL-5, 48 h
SK-OV-3 [12] = assay: Growth inhibition of human SKOV3 cells assessed as cell growth at 1 uM after 48 hrs by SRB assay; conditions: SK-OV-3, 48 h, read-out: Activity
HOP-92 = assay: Growth inhibition of human HOP92 cells assessed as cell growth at 100 uM after 48 hrs by SRB assay; conditions: HOP-92, 48 h, read-out: Activity
HCT-116 = assay: Growth inhibition of human HCT116 cells after 48 hrs by […] growth inhibition assay; conditions: HCT-116, 48 h
Malme-3M = assay: Growth inhibition of human MALME-3M cells assessed as cell growth at 100 uM after 48 hrs by SRB assay; conditions: read-out: Activity
OVCAR-5 [13] = assay: Growth inhibition of human OVCAR5 cells after 48 hrs by […] growth inhibition assay; conditions: OVCAR-5, 48 h
[14] = read-out: LC50 (the source's name)
[15] = read-out: pLC50 (the source's name) (converted)

Question: Which growth at 100 µM (786-0 [1]) does the source give for `CNC(=O)NC[C@H]1O[C@@H](n2cnc3c(NC(=O)Nc4ccccc4)ncnc32)[C@H](O[Si](C)(C)C(C)(C)C)[C@@H]1CC(=O)N(C)OC` here?
Answer: 48%

Question: And the growth at 1 µM (NCI-H226 [2])?
Answer: 111%

Question: What about the growth at 1000 µM (U-251) of the same molecule?
Answer: 25%

Question: What about the growth at 0.1 µM (COLO 205 [3]) of the same molecule?
Answer: 97%

Question: And the growth at 1000 µM (SK-OV-3 [4])?
Answer: 38%

Question: What about the growth at 0.1 µM (NCI-H522) of the same molecule?
Answer: 90%

Question: What about the growth at 10 µM (K562) of the same molecule?
Answer: 82%

Question: And the GI50 (SF-268; read-out: GI50)?
Answer: 8.29 µM

Question: What about the CC50 (SF-268; [14]) of the same molecule?
Answer: > 100 µM

Question: And the TGI (SF-268; read-out: TGI)?
Answer: > 100 µM

Question: What about the GI50 (SF-268; read-out: pGI50 (converted)) of the same molecule?
Answer: 8.32 µM

Question: And the CC50 (SF-268; [15])?
Answer: > 100 µM

Question: And the TGI (SF-268; read-out: pTGI (converted))?
Answer: > 100 µM

Question: And the growth at 100 µM (NCI-H322M)?
Answer: 90%

Question: And the growth at 1000 µM (MDA-MB-231)?
Answer: 5%

Question: And the GI50 (SF-295; read-out: GI50)?
Answer: 9.09 µM

Question: And the LC50 (SF-295; read-out: LC50)?
Answer: 16.4 µM

Question: And the TGI (SF-295; read-out: TGI)?
Answer: > 100 µM

Question: And the GI50 (SF-295; read-out: pGI50 (converted))?
Answer: 9.12 µM

Question: What about the LC50 (SF-295; read-out: pLC50 (converted)) of the same molecule?
Answer: > 100 µM

Question: What about the TGI (SF-295; read-out: pTGI (converted)) of the same molecule?
Answer: > 100 µM

Question: What about the GI50 (UO-31; read-out: GI50) of the same molecule?
Answer: 7.79 µM

Question: And the CC50 (UO-31; [14])?
Answer: > 100 µM

Question: And the TGI (UO-31; read-out: TGI)?
Answer: > 100 µM

Question: And the GI50 (UO-31; read-out: pGI50 (converted))?
Answer: 7.76 µM

Question: And the CC50 (UO-31; [15])?
Answer: > 100 µM

Question: What about the TGI (UO-31; read-out: pTGI (converted)) of the same molecule?
Answer: > 100 µM

Question: And the growth at 10 µM (MDA-MB-435 [5])?
Answer: 98%

Question: What about the growth at 1000 µM (NCI-H226 [6]) of the same molecule?
Answer: 40%

Question: What about the growth at 10 µM (M14) of the same molecule?
Answer: 91%

Question: And the growth at 10 µM (BT-549)?
Answer: 96%

Question: And the growth at 1 µM (EKVX)?
Answer: 95%

Question: What about the growth at 100 µM [7] of the same molecule?
Answer: -25%

Question: What about the growth at 100 µM (OVCAR-3) of the same molecule?
Answer: 41%

Question: What about the growth at 1 µM (MDA-MB-435 [8]) of the same molecule?
Answer: 97%

Question: What about the growth at 1 µM (COLO 205 [9]) of the same molecule?
Answer: 93%

Question: What about the growth at 1 µM (SK-MEL-2) of the same molecule?
Answer: 83%

Question: What about the growth at 1000 µM (786-0 [10]) of the same molecule?
Answer: 8%

Question: And the growth at 10 µM (SR)?
Answer: 62%

Question: And the growth at 1000 µM (SNB-19)?
Answer: 51%

Question: And the growth at 1000 µM (OVCAR-5 [11])?
Answer: 35%

Question: And the growth at 0.1 µM (HOP-62)?
Answer: 92%

Question: And the GI50 (SK-MEL-5; read-out: GI50)?
Answer: 5.81 µM

Question: What about the CC50 (SK-MEL-5; [14]) of the same molecule?
Answer: > 100 µM

Question: And the TGI (SK-MEL-5; read-out: TGI)?
Answer: > 100 µM

Question: And the GI50 (SK-MEL-5; read-out: pGI50 (converted))?
Answer: 5.75 µM

Question: What about the CC50 (SK-MEL-5; [15]) of the same molecule?
Answer: > 100 µM

Question: What about the TGI (SK-MEL-5; read-out: pTGI (converted)) of the same molecule?
Answer: > 100 µM

Question: What about the growth at 1 µM (SK-OV-3 [12]) of the same molecule?
Answer: 97%

Question: What about the growth at 100 µM (HOP-92) of the same molecule?
Answer: 27%

Question: What about the GI50 (HCT-116; read-out: GI50) of the same molecule?
Answer: 4.2 µM

Question: And the CC50 (HCT-116; [14])?
Answer: > 100 µM

Question: What about the TGI (HCT-116; read-out: TGI) of the same molecule?
Answer: > 100 µM

Question: What about the GI50 (HCT-116; read-out: pGI50 (converted)) of the same molecule?
Answer: 4.17 µM

Question: What about the CC50 (HCT-116; [15]) of the same molecule?
Answer: > 100 µM

Question: What about the TGI (HCT-116; read-out: pTGI (converted)) of the same molecule?
Answer: > 100 µM

Question: What about the growth at 100 µM (Malme-3M) of the same molecule?
Answer: 52%

Question: What about the GI50 (OVCAR-5 [13]; read-out: GI50) of the same molecule?
Answer: 38.2 µM

Question: And the CC50 (OVCAR-5 [13]; [14])?
Answer: > 100 µM

Question: And the TGI (OVCAR-5 [13]; read-out: TGI)?
Answer: > 100 µM

Question: And the GI50 (OVCAR-5 [13]; read-out: pGI50 (converted))?
Answer: 38 µM

Question: What about the CC50 (OVCAR-5 [13]; [15]) of the same molecule?
Answer: > 100 µM

Question: What about the TGI (OVCAR-5 [13]; read-out: pTGI (converted)) of the same molecule?
Answer: > 100 µM
